Patent US10328053B2 (Gilead Sciences, Inc., priority 2016, dated 2019)

Tests used:
[1] = Hepatic Stability Assay (in vitro half-life method); assay type: in vitro ADME; parameters: dose or concentration left out as unconfirmed; settings: pooled cryopreserved hepatocytes, 37° C., 1×10^6 cells/mL, 0-6 hours, LC-MS/MS, 39.5 hours is the maximum detectable half life, read-out: t½ (converted)
How it was run: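 Pooled cryopreserved hepatocytes (1×10^6 cells/mL) incubated with compound at […] test concentration, 37° C.; samples at 0, 1, 3 and 6 h quantified by LC-MS/MS. Half-life from rate of compound disappearance, scaled to predicted hepatic clearance via well-stirred model.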

[2] = system: HBV AD38 viral particles in HepG2 cell line overexpressing NTCP; experiment: HBV DNA Quantification Assay; assay type: cell-based; settings: Hepatitis B virus, HepG2, 120 h, HBV-infected HepG2-NTCP cells, 5 days incubation, HBV DNA in culture supernatant (QuantiGene 2.0); geometric mean of a minimum of four determinations
Description: HBV DNA Quantification Assay
A HepG2 cell line overexpressing the HBV virus attachment receptor sodium-taurocholate cotransporting polypeptide (NTCP) was grown to confluency in DMEM growth medium, Dulbecco's Modified Eagle Medium without sodium pyruvate (Life Technologies, Rockville, Md.) supplemented with 10% FBS (Thermo Scientific, Waltham, Md.), 1% penicillin/streptomycin (Life Technologies, Rockville, Md.) and 2 mM L-glutamine (Life Technologies, Rockville, Md.) in T175 flasks. Cells were infected with HBV AD38 viral particles (Texcell, Frederick, USA) at 4000 genome equivalents per cell. After allowing viral infection to take place for 4 days, the infected cells were harvested from the flasks by trypsinization, washed twice with OptiMEM (Life Technologies, Rockville, Md.) and re-suspended in DMEM containing 2% FBS and 1% DMSO at a density of 0.25E6 cells/ml. Infected cells were seeded on 384 well collagen coated plates (Greiner, Austria) at a density of 20,000 cells/well containing serially diluted compounds of the present disclosure or DMSO (0.5%) in a final volume of 80 μl. The assay plates were incubated for a period of 5 days and the antiviral activity of the test compounds were assayed by detecting the presence of HBV DNA in the culture supernatant using the QuantiGene™ 2.0 nucleic acid quantification kit (Affymetrix, Santa Clara, Calif.).
The culture supernatant was harvested and treated with lysis buffer containing Proteinase K (Affymetrix, Santa Clara, Calif.). The supernatant was incubated with HBV viral DNA specific probes (Affymetrix, Santa Clara, Calif.) for 30 minutes at 55° C. This was followed by addition of 0.2M NaOH for 30 minutes at room temperature to denature the DNA, followed by addition of Neutralization buffer (Affymetrix, Santa Clara, Calif.). The resulting lysed and neutralized supernatant was then added to QuantiGene™ 2.0 384 well plates coated with capture oligonucleotides and incubated overnight at 55° C. The HBV specific probe set consists of Capture Extender oligonucleotides (CE's) and blocking probes. Following the overnight incubation, the wells were incubated for one hour sequentially with a Pre-Amplifier, Amplifier and Labeled probes conjugated to alkaline phosphatase with a wash step between incubations. After the final wash step, the alkaline phosphatase substrate (Luminol APS5) was added and the resulting luminescence signal was read in an EnVision Multilabel Plate Reader (PerkinElmer, Santa Clara, Calif.). The EC50 values were calculated from the fit of the dose—response curves to a four-parameter equation. All EC50 values represent geometric mean values of a minimum of four determinations.

Structure (SMILES): Cc1c(C(=O)C(=O)NC2(c3c[nH]nn3)CC(F)(F)C2)c2n(c1C(=O)Nc1ccc(F)c(Cl)c1)CCC2 [Example 29, N-(3-chloro-4-fluorophenyl)-7-(2-((3,3-difluoro-1-(1H-1,2,3-triazol-4-yl)cyclobutyl)amino)-2-oxoacetyl)-6-methyl-2,3-dihydro-1H-pyrrolizine-5-carboxamide]
- half-life [1]: 16.1 h
- EC50 [2]: 3.1 nM

Structure (SMILES): Cc1c(C(=O)C(=O)NC2(c3c[nH]nn3)CC(F)(F)C2)c2n(c1C(=O)Nc1ccc(F)c(F)c1)CCC2 [Example 31, 7-(2-((3,3-difluoro-1-(1H-1,2,3-triazol-4-yl)cyclobutyl)amino)-2-oxoacetyl)-N-(3,4-difluorophenyl)-6-methyl-2,3-dihydro-1H-pyrrolizine-5-carboxamide]
- half-life [1]: 8.6 h
- EC50 [2]: 3.2 nM

Structure (SMILES): Cc1c(C(=O)C(=O)NC2(c3c[nH]nn3)CC(F)(F)C2)c2n(c1C(=O)Nc1ccc(F)cc1)CCC2 [Example 32, 7-(2-((3,3-difluoro-1-(1H-1,2,3-triazol-4-yl)cyclobutyl)amino)-2-oxoacetyl)-N-(4-fluorophenyl)-6-methyl-2,3-dihydro-1H-pyrrolizine-5-carboxamide]
- half-life [1]: 8.8 h
- EC50 [2]: 8.5 nM

Structure (SMILES): CNC(=O)C1(NC(=O)C(=O)c2c(C)c(C(=O)Nc3ccc(F)c(Cl)c3)n3c2[C@@H]2C[C@@H]2C3)CC(F)(F)C1 [Example 33, (1aS,6bR)—N-(3-chloro-4-fluorophenyl)-6-(2-((3,3-difluoro-1-(methylcarbamoyl)cyclobutyl)amino)-2-oxoacetyl)-5-methyl-1,1a,2,6b-tetrahydrocyclopropa[a]pyrrolizine-4-carboxamide]
- half-life [1]: 4.3 h
- EC50 [2]: 27.2 nM

Structure (SMILES): CNC(=O)C1(NC(=O)C(=O)c2c(C)c(C(=O)Nc3ccc(F)c(Cl)c3)n3c2[C@H]2C[C@H]2C3)CC(F)(F)C1 [Example 34, (1aR,6bS)—N-(3-chloro-4-fluorophenyl)-6-(2-((3,3-difluoro-1-(methylcarbamoyl)cyclobutyl)amino)-2-oxoacetyl)-5-methyl-1,1a,2,6b-tetrahydrocyclopropa[a]pyrrolizine-4-carboxamide]
- half-life [1]: 18.1 h
- EC50 [2]: 202 nM

Structure (SMILES): CNC(=O)C1(NC(=O)C(=O)c2c(C)c(C(=O)Nc3cc(F)c(F)c(F)c3)n3c2CCC3)CC(F)(F)C1 [Example 36, 7-(2-((3,3-difluoro-1-(methylcarbamoyl)cyclobutyl)amino)-2-oxoacetyl)-6-methyl-N-(3,4,5-trifluorophenyl)-2,3-dihydro-1H-pyrrolizine-5-carboxamide]
- half-life [1]: 26.5 h
- EC50 [2]: 24 nM

Structure (SMILES): Cc1c(C(=O)C(=O)NC2(c3c[nH]nn3)CC(F)(F)C2)c2n(c1C(=O)Nc1ccc(F)c(C#N)c1)CCC2 [Example 37, N-(3-cyano-4-fluorophenyl)-7-(2-((3,3-difluoro-1-(1H-1,2,3-triazol-4-yl)cyclobutyl)amino)-2-oxoacetyl)-6-methyl-2,3-dihydro-1H-pyrrolizine-5-carboxamide]
- half-life [1]: 10.9 h
- EC50 [2]: 5.6 nM

Structure (SMILES): CNC(=O)C1(NC(=O)C(=O)c2c(C)c(C(=O)Nc3cc(F)c(F)c(F)c3)n3c2C[C@H]2C[C@H]23)CC(F)(F)C1 [Example 38, (1aR,6aR)-5-(2-((3,3-difluoro-1-(methylcarbamoyl)cyclobutyl)amino)-2-oxoacetyl)-4-methyl-N-(3,4,5-trifluorophenyl)-1,1a,6,6a-tetrahydrocyclopropa[b]pyrrolizine-3-carboxamide]
- half-life [1]: 13.8 h
- EC50 [2]: 13 nM

Structure (SMILES): Cc1c(C(=O)C(=O)NC2(c3c[nH]nn3)CC(F)(F)C2)c2n(c1C(=O)Nc1ccc(F)c(Cl)c1)[C@@H]1C[C@@H]1C2 [Example 39, (1aR,6aR)—N-(3-chloro-4-fluorophenyl)-5-(2-((3,3-difluoro-1-(1H-1,2,3-triazol-4-yl)cyclobutyl)amino)-2-oxoacetyl)-4-methyl-1,1a,6,6a-tetrahydrocyclopropa[b]pyrrolizine-3-carboxamide]
- half-life [1]: 4.2 h
- EC50 [2]: 2.1 nM
